Data reported in patent publication US10105357B2, “Indication of antibiotic drugs for preparation of cancer inhibition pharmaceutical composition” (LAUNX BIOMEDICAL CO., LTD., priority 2014, dated 2018).
Structures can show the parent of a compound that is named as a salt. Where two headings read alike, the source gives them in different places.

Columns and labels:
[1] = system: cancer cell lines; assay: Cell viability analysis (WST-1) on cancer cell lines; format: cell-based, human; details: drug 10 μM, 72 hours, WST-1; Table 3
[2] = system: HI650 (Lung Adenocarcinoma); assay: Cell viability analysis, lung cancer HI650; format: cell-based, human; details: Homo sapiens, NCI-H1650, 72 h
[3] = system: A549 (Lung Adenocarcinoma); assay: Cell viability analysis, lung cancer A549; format: cell-based, human; details: Homo sapiens, A549, 72 h
[4] = system: AGS (Gastric Adenocarcinoma); assay: Cell viability analysis, gastric cancer AGS; format: cell-based, human; details: Homo sapiens, 72 h
[5] = system: MKN-45 (Gastric Adenocarcinoma); assay: Cell viability analysis, gastric cancer MKN-45; format: cell-based, human; details: Homo sapiens, MKN-45, 72 h
[6] = system: HepG2 (Hepatocellular Carcinoma); assay: Cell viability analysis, hepatic cancer HepG2; format: cell-based, human; details: Homo sapiens, HepG2, 72 h
[7] = system: LoVo (Colorectal Adenocarcinoma); assay: Cell viability analysis, colon cancer LoVo; format: cell-based, human; details: Homo sapiens, LoVo, 72 h
[8] = system: A375 (Amelanotic Melanoma); assay: Cell viability analysis, skin cancer A375; format: cell-based, human; details: Homo sapiens, A-375, 72 h
[9] = system: HeLa (Cervix Adenocarcinoma); assay: Cell viability analysis, cervical cancer HeLa; format: cell-based, human; details: Homo sapiens, HeLa, 72 h
[10] = system: PC3 (p53−) (Prostate Adenocarcinoma); assay: Cell viability analysis, prostate cancer PC3; format: cell-based, human; details: Homo sapiens, 72 h
[11] = system: TSGH-8301 (Urinary Bladder Carcinoma); assay: Cell viability analysis, bladder cancer TSGH-8301; format: cell-based, human; details: Homo sapiens, 72 h
[12] = system: MCF7 (Mammary Gland, Adenocarcinoma); assay: Cell viability analysis, breast cancer MCF7; format: cell-based, human; details: Homo sapiens, MCF7, 72 h
[13] = system: HL-60 (Acute Promyelocytic Leukemia); assay: Cell viability analysis, leukemia HL-60; format: cell-based, human; details: Homo sapiens, HL-60, 72 h
[14] = system: HCT116 (p53+) (Colorectal Carcinoma); assay: cells; details: Homo sapiens, HCT-116, 72 h, read-out: cell viability (survival rate), HCT116
[15] = read-out: cell viability (survival rate), H1650, drug 10 μM, 72 hours, WST-1, OD450 nm
[16] = read-out: cell viability (survival rate), A549, drug 10 μM, 72 hours, WST-1, OD450 nm
[17] = read-out: cell viability (survival rate), AGS, drug 10 μM, 72 hours, WST-1, OD450 nm
[18] = read-out: cell viability (survival rate), MKN-45, drug 10 μM, 72 hours, WST-1, OD450 nm
[19] = read-out: cell viability (survival rate), HepG2, drug 10 μM, 72 hours, WST-1, OD450 nm
[20] = read-out: cell viability (survival rate), LoVo, drug 10 μM, 72 hours, WST-1, OD450 nm
[21] = read-out: cell viability (survival rate), A375, drug 10 μM, 72 hours, WST-1, OD450 nm
[22] = read-out: cell viability (survival rate), HeLa, drug 10 μM, 72 hours, WST-1, OD450 nm
[23] = read-out: cell viability (survival rate), PC3, drug 10 μM, 72 hours, WST-1, OD450 nm
[24] = read-out: cell viability (survival rate), TSGH, drug 10 μM, 72 hours, WST-1, OD450 nm
[25] = read-out: cell viability (survival rate), MCF7, drug 10 μM, 72 hours, WST-1, OD450 nm
[26] = read-out: cell viability (survival rate), HL-60, drug 10 μM, 72 hours, WST-1, OD450 nm
[27] = read-out: cell viability (survival rate), H1650
[28] = read-out: cell viability (survival rate), A549
[29] = read-out: cell viability (survival rate), AGS
[30] = read-out: cell viability (survival rate), MKN-45
[31] = read-out: cell viability (survival rate), LoVo
[32] = read-out: cell viability (survival rate), A375
[33] = read-out: cell viability (survival rate), HeLa
[34] = read-out: cell viability (survival rate), PC3
[35] = read-out: cell viability (survival rate), TSGH
[36] = read-out: cell viability (survival rate), MCF7
[37] = read-out: cell viability (survival rate), HL-60
[38] = drug 10 μM, 72 hours, WST-1, OD450 nm, read-out: cell viability (survival rate), H1650
[39] = drug 10 μM, 72 hours, WST-1, OD450 nm, read-out: cell viability (survival rate), A549
[40] = drug 10 μM, 72 hours, WST-1, OD450 nm, read-out: cell viability (survival rate), AGS
[41] = drug 10 μM, 72 hours, WST-1, OD450 nm, read-out: cell viability (survival rate), MKN-45
[42] = drug 10 μM, 72 hours, WST-1, OD450 nm, read-out: cell viability (survival rate), HepG2
[43] = drug 10 μM, 72 hours, WST-1, OD450 nm, read-out: cell viability (survival rate), A375
[44] = drug 10 μM, 72 hours, WST-1, OD450 nm, read-out: cell viability (survival rate), HeLa
[45] = drug 10 μM, 72 hours, WST-1, OD450 nm, read-out: cell viability (survival rate), PC3
[46] = drug 10 μM, 72 hours, WST-1, OD450 nm, read-out: cell viability (survival rate), TSGH
[47] = drug 10 μM, 72 hours, WST-1, OD450 nm, read-out: cell viability (survival rate), MCF7
[48] = drug 10 μM, 72 hours, WST-1, OD450 nm, read-out: cell viability (survival rate), HL-60

Row | SMILES | inhibition effect on different cancer cell lines [1] | viability at 10 µM [2, 15] [%] | viability at 10 µM [3, 16] [%] | viability at 10 µM [4, 17] [%] | viability at 10 µM [5, 18] [%] | viability at 10 µM [6, 19] [%] | viability at 10 µM [7, 20] [%] | viability at 10 µM [8, 21] [%] | viability at 10 µM [9, 22] [%] | viability at 10 µM [10, 23] [%] | viability at 10 µM [11, 24] [%] | viability at 10 µM [12, 25] [%] | viability at 10 µM [13, 26] [%] | viability at 10 µM [14] [%] | viability at 10 µM [2, 38] [%] | viability at 10 µM [3, 39] [%] | viability at 10 µM [4, 40] [%] | viability at 10 µM [5, 41] [%] | viability at 10 µM [6, 42] [%] | viability at 10 µM [8, 43] [%] | also measured
1 | CCn1nc(C(=O)O)c(=O)c2cc3c(cc21)OCO3 [Cinoxacin] | significant inhibition effect | 67.1 | 74.2 | 83.2 | 98.9 | 69.7 | 97 | 68.3 | 64 | 87 | 71.5 | 74.9 | 109 | 66.2 |  |  |  |  |  |  | 
2 | O=C([O-])c1ccccc1O.[Na+] [Sodium salicylate] | significant inhibition effect |  |  |  |  |  |  |  |  |  |  |  |  | 73.5 |  |  |  |  |  |  | viability at 10 µM [2, 27]: 90.1%; viability at 10 µM [3, 28]: 107%; viability at 10 µM [4, 29]: 82.1%; viability at 10 µM [5, 30]: 77.9%; viability at 10 µM ([6]; read-out: cell viability (survival rate), HepG2): 84.3%; viability at 10 µM [7, 31]: 102%; viability at 10 µM [8, 32]: 74.9%; viability at 10 µM [9, 33]: 94.4%; viability at 10 µM [10, 34]: 87.9%; viability at 10 µM [11, 35]: 137%; viability at 10 µM [12, 36]: 89%; viability at 10 µM [13, 37]: 94.7%
3 | CC(C)(O/N=C(\C(=O)N[C@@H]1C(=O)N2C(C(=O)[O-])=C(C[n+]3ccccc3)CS[C@H]12)c1csc(N)n1)C(=O)O [Ceftazidime Pentahydrate] | significant inhibition effect |  |  |  |  |  | 72.5 |  |  |  |  |  |  | 89.5 | 58.5 | 26.7 | 53.5 | 94.6 | 93.6 | 87.7 | viability at 10 µM [9, 44]: 70%; viability at 10 µM [10, 45]: 38.5%; viability at 10 µM [11, 46]: 78.7%; viability at 10 µM [12, 47]: 35.5%; viability at 10 µM [13, 48]: 89.3%
4 | CN1CCN(c2cc3c(cc2F)c(=O)c(C(=O)O)cn3-c2ccc(F)cc2)CC1 [Difloxacin HCl] | significant inhibition effect |  |  |  |  |  | 95.7 |  |  |  |  |  |  | 96.7 | 77.5 | 64.5 | 82.9 | 79.4 | 71.2 | 58.5 | viability at 10 µM [9, 44]: 130%; viability at 10 µM [10, 45]: 77.3%; viability at 10 µM [11, 46]: 52%; viability at 10 µM [12, 47]: 52.3%; viability at 10 µM [13, 48]: 77%
5 | CCn1cc(C(=O)O)c(=O)c2cnc(N3CCCC3)nc21 [Piromidic Acid] | significant inhibition effect | 67.2 | 80.5 | 85.9 | 100 | 73.8 | 95.2 | 86.7 | 95.5 | 107 | 90.5 | 99.5 | 95.2 | 89.8 |  |  |  |  |  |  | 
6 | CO[C@@]1(NC(=O)C(C(=O)O)c2ccc(O)cc2)C(=O)N2C(C(=O)O)=C(CSc3nnnn3C)CO[C@@H]21 (some centres unmarked) [Moxalactam Disodium] | significant inhibition effect | 66.9 | 76.6 | 76.9 | 110 | 79.1 | 94 | 80.8 | 61.3 | 95 | 55.9 | 80.7 |  | 73.9 |  |  |  |  |  |  | 
7 | NC[C@H]1O[C@H](O[C@H]2[C@H](O)[C@@H](O[C@H]3O[C@H](CO)[C@@H](O)[C@H](N)[C@H]3O)[C@H](N)C[C@@H]2N)[C@H](N)[C@@H](O)[C@@H]1O [Bekanamycin] | significant inhibition effect |  |  |  |  |  | 96.9 |  |  |  |  |  |  | 73.6 | 80.8 | 58.3 | 81.7 | 74.5 | 85.3 | 55.5 | viability at 10 µM [9, 44]: 95.2%; viability at 10 µM [10, 45]: 76.3%; viability at 10 µM [11, 46]: 76.2%; viability at 10 µM [12, 47]: 57.5%; viability at 10 µM [13, 48]: 96.8%
8 | Cl.NCCc1ccc(O)c(O)c1 [Dopamine hydrochloride (Inotropin), Dopamine hydrochloride] | significant inhibition effect |  |  |  |  |  |  |  |  |  |  |  |  | 90.6 |  |  |  |  |  |  | viability at 10 µM [2, 27]: 76%; viability at 10 µM [3, 28]: 102%; viability at 10 µM [4, 29]: 74.3%; viability at 10 µM [5, 30]: 85%; viability at 10 µM [7, 31]: 84.3%; viability at 10 µM [8, 32]: 83%; viability at 10 µM [9, 33]: 85.1%; viability at 10 µM [10, 34]: 115%; viability at 10 µM [11, 35]: 57.7%; viability at 10 µM [12, 36]: 148%; viability at 10 µM [13, 37]: 91.5%
9 | CN(C)c1ccc(O)c2c1C[C@H]1C[C@H]3[C@H](N(C)C)C(O)=C(C(N)=O)C(=O)[C@@]3(O)C(O)=C1C2=O [Minocycline HCl] | significant inhibition effect | 74 | 42.5 | 87.6 | 95 | 103 | 87.3 | 81.6 |  | 53.8 | 60.4 | 49.9 | 68.1 | 105 |  |  |  |  |  |  | 
10 | CCc1c(Cl)c(O)c(Cl)c(O)c1C(=O)O[C@H]1[C@H](O)[C@H](OC)[C@H](OC/C2=C\C=C\C[C@H](O)/C(C)=C/[C@H](CC)[C@@H](O[C@@H]3OC(C)(C)[C@@H](OC(=O)C(C)C)[C@H](O)[C@@H]3O)/C(C)=C/C(C)=C/C[C@@H]([C@@H](C)O)OC2=O)O[C@@H]1C [Fidaxomicin] | significant inhibition effect | 61.2 | 40.6 | 94.9 | 94.2 | 99.6 | 89.6 | 70.3 | 82.2 | 59.4 | 82.4 | 46.6 | 99.2 | 102 |  |  |  |  |  |  | 
